“And” between values parts separate entries of the source, which are not always exact repeats. Equal values may be shown once.
Tests used:
[1] = biological target: TRPV1 (Homo sapiens, UniProt Q8NER1); details: clinical trial after third molar extraction; trial terminated; cited from earlier work
[2] = system: hypersensitive teeth; test: Randomized controlled study of dentine hypersensitivity: visual analogue scale (VAS) score with hot applicator and ice cube, before and after first mouthwash application; type: in vivo, patients; parameters: key to Before Ice / Before Hot: VAS score, 0 = no pain to 10 = severe pain (10 cm line); details: for Hot After 1 use Mean / Ice After 1 use Mean / Before Hot Mean / Before Ice Mean / Hot After 1 use / Ice After 1 use: VAS 0-10; for Hot After 1 use Mean / Ice After 1 use Mean / Before Hot Mean / Before Ice Mean: group mean of 6 subjects; for Hot After 1 use Mean / Ice After 1 use Mean: after first application of mouthwash; for Hot After 1 use Mean / Before Hot Mean / Hot After 1 use / Before Hot / Modifications in HS after the product application, Hot After 1 use, %: applicator heated to 90C; for Ice After 1 use Mean / Before Ice Mean / Ice After 1 use / Before Ice / Modifications in HS after the product application, Ice After 1 use, %: ice cube; for Before Hot Mean / Before Ice Mean / Before Hot / Before Ice: baseline before mouthwash; for Hot After 1 use / Ice After 1 use / Before Hot / Before Ice: individual subjects 1-6; for Hot After 1 use / Ice After 1 use: after first application of mouthwash (potassium nitrate 5%, galangin 0,1%, adenosine 0,05%, oleic acid 0,1% or combination); for Before Hot / Before Ice: VAS 0 - no pain, 10 - severe pain; for Modifications in HS after the product application, Hot After 1 use, % / Modifications in HS after the product application, Ice After 1 use, %: decrease of mean VAS versus before, mouthwash, first application
Description: Table 2. Schedule of enrollment, intervention and assessment of the study
• Age from 18 to 35 years old • Good overall health; • At least one DHS tooth with sensitivity over or equal to 4 (VAS). Withdrawal criteria • Active caries or defective restorations on the tested tooth; • Considerable loss of dentine, requiring remedial treatment or paradental surgery; • Presence of veneers; • Any professional desensitizing treatment during previous 6 months; • Use of desensitizing toothpaste during previous 3 months. • Use of anti-inflammatory medicine or painkillers during enrollment; • Currently pregnant of breast-feeding.
The subjects were randomized into 6 treatment groups, two control groups of which were negative and positive controls (Fig. 3).
For random distribution of subjects, randomization was made as a draw with the website www.randomizer.org. An average value of initial points according to DHS degree was determined for each subject, and the subjects were randomized into treatment groups providing the equivalent initial DHS points for various treatment modes. All the hypersensitive teeth in each subject were estimated with the use of DHS; an average value was considered for the baseline. All the hypersensitive teeth were subjected and re-estimated. Next, and average value was calculated for the final estimation of sensitivity.
These products were used by them till the end of the study. An oral care set included soft toothbrush and toothpaste for general oral care.
The treatment groups received mouthwashes with the following systems; Table 3. Basic formulation of mouthwash to include the system: […]
The primary result expected in the study was the decrease of dental hypersensitivity after the first application of the product. The result of the system application was calculated with a visual analogue scale, which registers sensitivity with a 10 cm line. The line extremums are the pain limits, which the subject can feel from external irritant (0 - no pain; 10 - severe pain). First, dental sensitivity was registered with an ice cube and an applicator heated to 90C. After the first application, sensitivity to external irritant was registered with an ice cube and an applicator heated to 90C.
The tested sample size was 36 subjects. The data was collected and then filtered out from errors and processed with the standard functionality of MS Excel. The charts were made with Microsoft Excel software. Table 5. Results of hypersensitivity assessment study

[3] = biological target: T1, CYP1A1 (Homo sapiens, UniProt P04798); details: with various proteins, such as CYP1A1; transformation into kaempferol; cited from earlier work
T1 sequence (P04798 1-512): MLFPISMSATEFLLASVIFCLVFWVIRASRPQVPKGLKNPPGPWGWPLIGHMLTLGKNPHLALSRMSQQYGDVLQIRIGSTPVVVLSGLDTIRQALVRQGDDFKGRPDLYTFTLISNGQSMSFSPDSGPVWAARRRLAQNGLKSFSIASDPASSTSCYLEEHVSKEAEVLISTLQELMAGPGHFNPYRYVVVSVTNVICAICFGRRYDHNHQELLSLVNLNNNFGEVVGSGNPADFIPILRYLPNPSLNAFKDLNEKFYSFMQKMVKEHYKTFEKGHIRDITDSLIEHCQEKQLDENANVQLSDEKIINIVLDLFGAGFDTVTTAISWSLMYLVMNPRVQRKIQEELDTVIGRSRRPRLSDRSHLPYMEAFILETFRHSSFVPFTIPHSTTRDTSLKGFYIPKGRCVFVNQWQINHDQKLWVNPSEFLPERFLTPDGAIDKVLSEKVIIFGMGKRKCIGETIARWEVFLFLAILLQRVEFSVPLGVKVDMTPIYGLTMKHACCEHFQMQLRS

[4] = oral administration; due to intensive metabolism; cited from earlier work
[5] = pure galangin; cited from earlier work
[6] = system: TRPC5; details: animal model, cited from earlier work
[7] = biological target: T2, TRPC5 receptors (Homo sapiens, UniProt Q9UL62); details: compared with galangin; cited from earlier work
T2 sequence (Q9UL62 1-973): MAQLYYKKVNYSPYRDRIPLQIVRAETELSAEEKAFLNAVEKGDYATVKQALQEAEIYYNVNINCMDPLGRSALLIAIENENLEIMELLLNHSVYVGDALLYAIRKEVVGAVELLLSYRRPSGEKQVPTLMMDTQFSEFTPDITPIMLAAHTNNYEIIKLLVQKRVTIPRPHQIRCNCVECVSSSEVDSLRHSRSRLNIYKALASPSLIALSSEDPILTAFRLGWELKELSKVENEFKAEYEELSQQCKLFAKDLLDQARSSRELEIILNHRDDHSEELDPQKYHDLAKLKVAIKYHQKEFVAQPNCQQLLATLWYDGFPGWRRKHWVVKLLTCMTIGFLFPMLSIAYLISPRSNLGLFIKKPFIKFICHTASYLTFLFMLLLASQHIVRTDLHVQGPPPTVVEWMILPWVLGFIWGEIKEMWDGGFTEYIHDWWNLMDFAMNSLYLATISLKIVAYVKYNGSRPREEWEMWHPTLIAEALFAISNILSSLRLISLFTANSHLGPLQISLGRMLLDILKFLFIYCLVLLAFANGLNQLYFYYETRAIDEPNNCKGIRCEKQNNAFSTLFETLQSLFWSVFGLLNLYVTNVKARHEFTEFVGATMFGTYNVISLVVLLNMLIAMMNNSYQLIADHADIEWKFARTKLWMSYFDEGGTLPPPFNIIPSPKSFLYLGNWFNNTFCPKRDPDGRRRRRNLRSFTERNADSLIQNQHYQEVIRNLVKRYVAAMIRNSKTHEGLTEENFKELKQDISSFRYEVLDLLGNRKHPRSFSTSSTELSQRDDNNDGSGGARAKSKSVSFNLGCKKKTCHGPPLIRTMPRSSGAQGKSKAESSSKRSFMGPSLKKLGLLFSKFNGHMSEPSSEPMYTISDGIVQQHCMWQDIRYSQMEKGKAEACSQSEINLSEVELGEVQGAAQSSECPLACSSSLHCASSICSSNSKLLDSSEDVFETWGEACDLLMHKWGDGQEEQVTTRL

TRPV1, sequence (Q8NER1 whole entry): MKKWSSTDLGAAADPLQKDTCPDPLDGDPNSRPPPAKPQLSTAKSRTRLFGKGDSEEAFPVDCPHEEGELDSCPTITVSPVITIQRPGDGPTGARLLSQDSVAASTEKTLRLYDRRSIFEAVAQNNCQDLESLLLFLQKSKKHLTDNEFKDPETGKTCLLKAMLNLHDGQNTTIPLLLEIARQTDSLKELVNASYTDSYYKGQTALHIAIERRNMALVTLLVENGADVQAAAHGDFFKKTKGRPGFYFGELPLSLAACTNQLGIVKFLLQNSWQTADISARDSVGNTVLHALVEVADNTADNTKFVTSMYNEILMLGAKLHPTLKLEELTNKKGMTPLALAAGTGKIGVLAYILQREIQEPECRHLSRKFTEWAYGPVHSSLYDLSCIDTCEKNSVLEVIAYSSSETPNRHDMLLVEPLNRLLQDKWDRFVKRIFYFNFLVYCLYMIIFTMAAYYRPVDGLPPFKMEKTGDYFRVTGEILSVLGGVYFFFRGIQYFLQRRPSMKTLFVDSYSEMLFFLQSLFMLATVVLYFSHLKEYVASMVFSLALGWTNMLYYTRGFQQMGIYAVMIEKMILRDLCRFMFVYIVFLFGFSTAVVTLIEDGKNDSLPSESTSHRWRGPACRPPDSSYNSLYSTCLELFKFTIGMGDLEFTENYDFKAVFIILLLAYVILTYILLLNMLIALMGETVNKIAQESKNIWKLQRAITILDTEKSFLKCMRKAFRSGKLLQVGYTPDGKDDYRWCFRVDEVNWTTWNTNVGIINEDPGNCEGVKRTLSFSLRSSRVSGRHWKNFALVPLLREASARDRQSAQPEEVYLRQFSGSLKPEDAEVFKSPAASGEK

Structure (SMILES)	Hot After 1 use Mean [2]	Ice After 1 use Mean [2]	Before Hot Mean [2]	Before Ice Mean [2]	Modifications in HS after the product application, Hot After 1 use, % [2] [%]	Modifications in HS after the product application, Ice After 1 use, % [2]	other results
CC(=O)Nc1nc2c(Oc3cc(-c4ccc(C(F)(F)F)cc4)ncn3)cccc2s1 [AMG 517]	–	–	–	–	–	–	body temperature [1]: increased body temperature
Nc1ncnc2c1ncn2[C@@H]1O[C@H](CO)[C@@H](O)[C@H]1O [Adenosine, adenosine]	4	6,8	7,3	7	45.2	2.8%	Hot After 1 use ([2]; listed as 4): 5 and 6 and 4 (2×) and 2 and 3; Ice After 1 use ([2]; listed as 4): 8 and 9 and 6 (2×) and 5 and 7; Before Hot ([2]; listed as 4): 8 and 9 (2×) and 7 and 6 and 5; Before Ice ([2]; listed as 4): 8 (2×) and 7 (2×) and 6 (2×)
O=c1c(O)c(-c2ccccc2)oc2cc(O)cc(O)c12 [Galangin, galangin]	4,6	2,5	5,2	5,8	11.5	56,9%	Hot After 1 use ([2]; listed as 3): 4 and 6 and 3 and 5 (3×); Ice After 1 use ([2]; listed as 3): 3 (2×) and 2 (2×) and 4 and 1; Before Hot ([2]; listed as 3): 3 and 6 (2×) and 4 and 7 and 5; Before Ice ([2]; listed as 3): 6 (3×) and 5 (2×) and 7; metabolic oxidation [3]: prone to rapid metabolic oxidation; bioavailability [4]: extremely low bioavailability; solubility in water [5]: practically insoluble in water
Cc1cc(N2CCCCC2)nc2ccccc12 [ML204]	–	–	–	–	–	–	response to cold and pain ([6]; TRPC5 blockers): effectively eliminated any response to cold and prevented pain
CCCCCCCC/C=C\CCCCCCCC(=O)O [Oleic acid, oleic acid]	4,3	5,2	6,8	7,2	36.8	27.8%	Hot After 1 use ([2]; listed as 5): 3 and 5 and 4 (3×) and 6; Ice After 1 use ([2]; listed as 5): 8 and 4 (2×) and 6 (2×) and 3; Before Hot ([2]; listed as 5): 5 and 9 and 6 (2×) and 8 and 7; Before Ice ([2]; listed as 5): 9 and 8 (2×) and 5 and 7 and 6
O=[N+]([O-])[O-].[K+] [Potassium nitrate]	6	5,7	6,7	7,6	10.4	25%	Hot After 1 use ([2]; listed as 1): 5 (2×) and 4 and 7 (2×) and 8; Ice After 1 use ([2]; listed as 1): 5 (2×) and 4 and 7 (2×) and 6; Before Hot ([2]; listed as 1): 5 (2×) and 6 and 8 (3×); Before Ice ([2]; listed as 1): 7 and 8 (3×) and 6 and 9
O=c1c(O)c(-c2ccc(O)cc2)oc2cc(O)cc(O)c12 [kaempferol]	–	–	–	–	–	–	impact on TRPC5 receptors [7]: either does not affect TRPC5 receptors, or shows a significantly milder impact than that of galangin
Nc1nc2ccc(OC(F)(F)F)cc2s1 [ruizole]	–	–	–	–	–	–	jaw sensitivity ([6]; agonist of TRPC5 channel): increased jaw sensitivity
